Results: patent US20100184815A1 (priority 2008, published 2010)
pEC50: −log10 of the molar value. Read-outs that look alike come from different tables or passages of the source.

What was measured:
Gal-4 hPPARα = biological target: T1, Gal-4 hPPARα (Homo sapiens, UniProt Q07869); test: Gal4-hPPARα transient transfection reporter assay in Cos cells; type: cell-based; conditions: luciferase reporter, 24 hours with compound, scale 1-5, read-out: Gal-4 hPPAR α EC50 (scaled number)
T1 construct: Plasmids pGal4-hPPARα, pGal4-hPPARγ, pGal4-hPPARδ and pG5-TK-pGL3 were constructed as previously described by Staels, Bart, et al., Nature 1998 Jun; 25
T1 sequence (Q07869 200-468 limits assumed): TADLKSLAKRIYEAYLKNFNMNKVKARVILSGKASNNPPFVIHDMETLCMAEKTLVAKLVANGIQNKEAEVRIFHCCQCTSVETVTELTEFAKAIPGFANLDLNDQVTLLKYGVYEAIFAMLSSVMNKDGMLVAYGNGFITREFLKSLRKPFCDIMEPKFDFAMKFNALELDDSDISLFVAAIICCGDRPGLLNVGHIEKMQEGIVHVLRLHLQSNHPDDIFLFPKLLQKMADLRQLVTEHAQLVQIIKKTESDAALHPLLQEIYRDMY
Summary of the method: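 Cos cells transiently co-transfected with Gal4-hPPAR expression plasmid, pG5-TK-pGL3 luciferase reporter and β-galactosidase control, then treated 24 h with increasing compound concentrations in DMEM containing 0.2% FCS. Luciferase normalised to β-galactosidase; EC50 from curve fit, at least three experiments.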

pig liver esterase = test: Metabolism studies using pig liver esterase; type: in vitro ADME; conditions: 37° C.
Description: The esterase-mediated metabolism of these compounds was studied using commercially available pig liver esterase in the presence and absence of human plasma proteins. The disappearance of parent was monitored over the time course of the incubations using a LC-UV detection system.
A stock solution and working stock solution was prepared for each proprietary compound as described for the human liver microsomal incubations. Working solutions of pig liver esterase in potassium phosphate buffer ([…], pH 7.4) and pig liver esterase in human plasma protein were prepared by dissolving pig liver esterase (2.51 mg) in the phosphate buffer or plasma protein solutions, respectively.
A set of three Eppendorf microfuge tubes (1.5 mL) was appropriately labeled. To each tube was added 1.5 mL of phosphate buffer, pig liver esterase in buffer, or pig liver esterase in human plasma protein solution. These solutions were pre-incubated (37° C., 900 rpm) and the reactions were initiated by adding an aliquot (37.5 μL) of the working solution of proprietary compound to each tube. An aliquot (100 μL) from each tube was removed at time 0, 5, 30, 60, and 120 min and added to a tube containing acetonitrile (200 μL) to stop the reaction.
The samples were centrifuged at 14000 g for 15 minutes at 4° C. The supernatant was transferred to clean labeled HPLC injection vials and stored at −80° C. until analyzed. An aliquot of the supernatant (25 μL) was injected onto the LC-UV system for analysis.
Half lives of a sample of test articles is noted in the following table. Half life was determined in the presence or absence of plasma.

[1] = Metabolism studies using human liver microsomal preparations; type: in vitro ADME; conditions: for HLMs t1/2 (min) / half-life: pooled human liver microsomes, with NADPH (CYP system active), 37° C.; for HLMs Predominant Enzyme: comparison of half life with and without NADPH: Esterase, CYP or Mixed; for half-life: pH 7.4, read-out: HLMs t1/2
Description: Compounds were incubated in pooled human liver microsomes (HLMs) in the presence or absence of an NADPH-generating system. NADPH is required for the activity of cytochrome P450 (CYP) and other oxidative enzymes present in HLMs, but not for esterase activity. An additional incubation was carried out in the absence of HLM to assess compound stability. The disappearance of parent and the appearance of the corresponding acid metabolite were monitored over the time course of the incubations using LC-MS/MS.
A stock solution (20 mM) of each proprietary compound in DMSO was prepared and store at −20° C. until needed. A working stock solution (0.2 mM) was prepared for each proprietary compound by adding an aliquot of the stock solution (10 μL) to acetonitrile (990 μL).
An aliquot of the HLM solution was removed from the −80° C. freezer and placed on ice. Tris Buffer (50 mM, pH 7.4) containing MgCl2 (hexahydrate, 5 mM) was pre-incubated in a 37° C. water bath. A set of Eppendorf microfuge tubes (1.5 mL) was appropriately labeled. To each tube was added Tris buffer with or without the NADPH generating system. An aliquot of pooled HLMs was added to all the incubations except those that were the buffer control.
Tubes were preincubated for 5 min in a shaking incubator bath (37° C., 900 rpm) and the reaction was initiated by adding an aliquot of the proprietary working solution (5 μL). The additions were timed carefully in order to coordinate the sample collections below. A small aliquot (50 μL) was removed at […] and delivered to the respective tubes containing dextrorphan (100 μL of 0.5 μg/mL solution) in dissolved in methanol or acetonitrile. The samples were centrifuged at 14000 g for 15 minutes at 4° C. The supernatant was transferred to clean labeled HPLC injection vials and stored at −80° C. until analyzed. An aliquot of the supernatant […] was added to water (75 μL), mixed and injected onto the LC-MS/MS system for analysis.
“HLM t1/2” represents the observed half life of the compound under conditions that included NADPH, i.e., the CYP system was active. Comparison to the half life of the test article under (−)NADPH conditions, the enzyme predominant ly responsible for the metabolism of the test article. […] Where roughly equal metabolism is seen by each enzyme system, “mixed” is noted in the “Predominant enzyme” column.

[2] = pig liver esterase in human plasma protein solution, read-out: Pig Liver Esterase (t1/2 min.) (+) Plasma
[3] = pig liver esterase in phosphate buffer pH 7.4, no plasma, read-out: Pig Liver Esterase (t1/2 min.) (−) Plasma
[4] = pig liver esterase in human plasma protein solution

| Structure (SMILES) | pEC50 (Gal-4 hPPARα) | half-life at 4.9 µM (pig liver esterase; [2]) [h] | half-life at 4.9 µM (pig liver esterase; [3]) [h] | HLMs t1/2 (min) [1] | HLMs Predominant Enzyme [1] | half-life [1] [h] | Pig Liver Esterase (t1/2 min.) (+) Plasma (pig liver esterase; [4]) |
| --- | --- | --- | --- | --- | --- | --- | --- |
| Cc1ccc(Cn2cc(COC(=O)c3ccc(SC(C)(C)C(=O)O)cc3)cn2)cc1 [Compound 3, 2-methyl-2-(4-(((1-(4-methylbenzyl)-1H-pyrazol-4-yl)methoxy)carbonyl)phenylthio)propanoic acid] | 6.70 to 7.29 | > 2 | 0.317 | Stable |  |  |  |
| CCCc1nn(Cc2ccc(C(F)(F)F)cc2)cc1COC(=O)c1ccc(SC(C)(C)C(=O)O)cc1 [Compound 12, 2-methyl-2-(4-(((3-propyl-1-(4-(trifluoromethyl)benzyl)-1H-pyrazol-4-yl)methoxy)carbonyl)phenylthio)propanoic acid] | 6.70 to 7.29 | 1.02 | < 0.0833 |  | Esterase | 1 |  |
| Cc1ccc(Cn2cc(COC(=O)c3ccc(SC(C)(C)C(=O)O)cc3)nn2)cc1 [Compound 60, 2-methyl-2-(4-(((1-(4-methylbenzyl)-1H-1,2,3-triazol-4-yl)methoxy)carbonyl)phenylthio)propanoic acid] | 7.30 to 9.00 | 1.48 | 0.517 |  | Esterase | 1.5 |  |
| CC(C)(Sc1ccc(C(=O)OCc2cn(Cc3ccc(C(F)(F)F)cc3)nn2)cc1)C(=O)O [Compound 67, 2-methyl-2-(4-(((1-(4-(trifluoromethyl)benzyl)-1H-1,2,3-triazol-4-yl)methoxy)carbonyl)phenylthio)propanoic acid] | 7.30 to 9.00 | 2.02 | 0.35 | Stable |  |  |  |
| CC(C)(Sc1ccc(C(=O)OCc2cn(Cc3ccc(C(C)(C)C)cc3)nn2)cc1)C(=O)O [Compound 69, 2-(4-(((1-(4-tert-butylbenzyl)-1H-1,2,3-triazol-4-yl)methoxy)carbonyl)phenylthio)-2-methylpropanoic acid] | 7.30 to 9.00 | 2.1 | 0.233 |  | Esterase | 1 |  |
| COC(c1ccc(Cn2cc(COC(=O)c3ccc(SC(C)(C)C(=O)O)cc3)nn2)cc1)(C(F)(F)F)C(F)(F)F [Compound 75, 2-(4-(((1-(4-(1,1,1,3,3,3-hexafluoro-2-methoxypropan-2-yl)benzyl)-1H-1,2,3-triazol-4-yl)methoxy)carbonyl)phenylthio)-2-methylpropanoic acid] | 6.70 to 7.29 | 2.67 | 0.483 |  | Esterase | 0.417 |  |
| Cc1ccc(Cn2cc([C@@H](C)OC(=O)c3ccc(SC(C)(C)C(=O)O)cc3)nn2)cc1 [Compound 87, (R)-2-methyl-2-(4-((1-(1-(4-methylbenzyl)-1H-1,2,3-triazol-4-yl)ethoxy)carbonyl)phenylthio)propanoic acid] | 7.30 to 9.00 | 1.38 | 0.317 |  | Esterase | 2.13 |  |
| CC(C)(Sc1ccc(C(=O)OCCc2cn(Cc3ccc(C(F)(F)F)cc3)nn2)cc1)C(=O)O [Compound 91, 2-methyl-2-(4-((2-(1-(4-(trifluoromethyl)benzyl)-1H-1,2,3-triazol-4-yl)ethoxy)carbonyl)phenylthio)propanoic acid] | 6.00 to 6.70 | > 2 | 1.07 |  | Mixed | 0.917 |  |
| CCCn1c(COC(=O)c2ccc(OC(C)(C)C(=O)O)cc2)nn(Cc2ccc(C(C)(C)C)cc2)c1=O [Compound 150, 2-(4-(((1-(4-tert-butylbenzyl)-5-oxo-4-propyl-4,5-dihydro-1H-1,2,4-triazol-3-yl)methoxy)carbonyl)phenoxy)-2-methylpropanoic acid] | 7.30 to 9.00 |  | 0.517 | Stable |  |  | Stable |
| CCCCCCn1c(COC(=O)c2ccc(OC(C)(C)C(=O)O)cc2)nn(Cc2ccc(C)cc2)c1=O [Compound 151, 2-(4-(((4-hexyl-1-(4-methylbenzyl)-5-oxo-4,5-dihydro-1H-1,2,4-triazol-3-yl)methoxy)carbonyl)phenoxy)-2-methylpropanoic acid] | 7.30 to 9.00 |  | 0.517 | Stable | Stable |  | Stable |
| CCCCCCCCn1c(COC(=O)c2ccc(OC(C)(C)C(=O)O)cc2)nn(Cc2ccc(C)cc2)c1=O [Compound 152, 2-methyl-2-(4-(((1-(4-methylbenzyl)-4-octyl-5-oxo-4,5-dihydro-1H-1,2,4-triazol-3-yl)methoxy)carbonyl)phenoxy)propanoic acid] | 6.70 to 7.29 |  | 0.5 |  | Esterase | 3 | Stable |
| CCCn1c(COC(=O)c2ccc(SC(C)(C)C(=O)O)cc2)nn(Cc2ccc(C(C)(C)C)cc2)c1=O [Compound 159, 2-(4-(((1-(4-tert-butylbenzyl)-5-oxo-4-propyl-4,5-dihydro-1H-1,2,4-triazol-3-yl)methoxy)carbonyl)phenylthio)-2-methylpropanoic acid] | 7.30 to 9.00 | 1.62 | 0.05 | Stable |  |  |  |
| CCCCCCn1c(COC(=O)c2ccc(SC(C)(C)C(=O)O)cc2)nn(Cc2ccc(C)cc2)c1=O [Compound 160, 2-(4-(((4-hexyl-1-(4-methylbenzyl)-5-oxo-4,5-dihydro-1H-1,2,4-triazol-3-yl)methoxy)carbonyl)phenylthio)-2-methylpropanoic acid] | 7.30 to 9.00 | > 2 | < 0.0833 | Stable |  |  |  |
| CCCCCCCCn1c(COC(=O)c2ccc(SC(C)(C)C(=O)O)cc2)nn(Cc2ccc(C)cc2)c1=O [Compound 161, 2-methyl-2-(4-(((1-(4-methylbenzyl)-4-octyl-5-oxo-4,5-dihydro-1H-1,2,4-triazol-3-yl)methoxy)carbonyl)phenylthio)propanoic acid] | 7.30 to 9.00 | > 2 | < 0.0833 |  | Esterase | 0.2 |  |
